Patent publication US6218431A, “Substituted biphenyls” (Bayer Corporation, priority 1997, dated 2001)

What was measured:
rat liver membrane [1] = settings: Collins et al. 1992; cited from earlier work
rat liver membrane [2] = settings: Collins et al. 1992; cited from earlier work; remark: listed apart in the source
glucagon receptor = target: T1, glucagon receptor (Homo sapiens, UniProt P47871); experiment: glucagon receptor binding assay (125I-glucagon, CHO-HGR membranes); settings: 125I-glucagon; 60 min at room temperature; read-out: IC50
T1 construct: expressed in transfected cells; host or cells: Chinese Hamster Ovary cells (CHO-HGR), membranes
T1 sequence (P47871 26-477): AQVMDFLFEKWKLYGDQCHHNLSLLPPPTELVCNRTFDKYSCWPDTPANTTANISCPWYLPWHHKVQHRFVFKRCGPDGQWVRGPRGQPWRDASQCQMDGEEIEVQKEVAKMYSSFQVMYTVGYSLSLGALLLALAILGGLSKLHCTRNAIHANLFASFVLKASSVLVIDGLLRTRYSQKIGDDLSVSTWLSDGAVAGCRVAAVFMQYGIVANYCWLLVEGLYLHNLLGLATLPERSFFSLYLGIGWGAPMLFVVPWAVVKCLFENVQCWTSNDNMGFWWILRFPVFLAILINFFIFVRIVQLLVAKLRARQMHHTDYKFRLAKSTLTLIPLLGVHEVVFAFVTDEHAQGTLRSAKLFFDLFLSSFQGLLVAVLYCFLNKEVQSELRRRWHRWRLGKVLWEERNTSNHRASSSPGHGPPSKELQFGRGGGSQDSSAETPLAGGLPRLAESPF
In short: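 Membranes from CHO cells expressing glucagon receptor (10 ug protein) in Tris pH 7.4 buffer with EDTA, BSA and bacitracin, incubated with test compound and 125I-glucagon (9 fmol) 60 min at room temperature. Bound radioactivity counted after filtration; nonspecific binding defined with 1 μM native glucagon; 0.5% DMSO.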

| Structure (SMILES) | inhibit glucagon binding (rat liver membrane [1]) | inhibit glucagon action (rat liver membrane [2]) | IC50 (glucagon receptor) |
| --- | --- | --- | --- |
| CN(C)CCCN(C)c1nc2cc(Cl)c(Cl)cc2nc1/C=C/c1ccccc1 [CP-99,711] | micromolar concentrations | micromolar concentrations | – |
| Cc1ccc(CCc2c(C(C)C)nc(C(C)C)c(CO)c2-c2ccc(F)cc2)cc1 [Example 45, 2,6-Diisopropyl-3-hydroxyl methyl-4-(4-fluorophenyl)-5-[2-(4-methyl-phenyl)ethyl]pyridine] | – | – | 1100 nM |
